Earlier results on 1 compound are cited in US4761405A, “Antagonists of specific excitatory amino acid neurotransmitter receptors having increased potency” (priority 1987, dated 1988).

The test system of data set [1] is audiogenically-induced seizures. The note with it: i.c.v. and i.v.; genetically susceptible mice; cited from earlier work.
The subject of data set [2] is photically-induced myoclonus. Particulars: i.v.; baboon; cited from earlier work.
The subject of data set [3] is electroshock-induced seizures. Particulars: mice; cited from earlier work.
Data set [4] concerns chemically-induced seizures. The note with it: rodents; cited from earlier work.
The test system of another data set is ischemic brain damage. Particulars: intrahippocampally; rodent carotid artery occlusion model; cited from earlier work.
For data set [5], the system named is neurotoxic and convulsive actions of NMDA, IBO and Quin. The note with it: in vivo; cited from earlier work.

Take `N[C@H](CCCCCP(=O)(O)O)C(=O)O` [AP7, D(-)-2-amini-7-phosphonoheptanoic acid]: in data set [1], the “Protection against audiogenically-induced seizures” value is “protects against audiogenically-induced seizures”. The “Effect on photically-induced myoclonus” value in data set [2] is recorded as “suppresses photically-induced myoclonus”. Further, the “Effect on threshold current for electroshock-induced seizures” value in data set [3] is listed as “increased threshold current for electroshock-induced seizures”. For the same compound, in data set [4], the “Effect on chemically-induced seizures” value is on record as “prevents chemically-induced seizures”. Moreover, in the data set on ischemic brain damage, the “Effect on ischemic brain damage” value is “markedly reduce or eliminate ischemic brain damage”. The “Effect on neurotoxic and convulsive actions of NMDA, IBO and Quin (but not KA)” value in data set [5] was “interferring with the neurotoxic and convulsive actions of NMDA, the exogenous excitotoxin, IBO, and the endogenous excitotoxin Quin (but not KA)”.
